Consider two compounds from patent US20090032427A1, “Receptacles and Kits, Such as for Dry Powder Packaging” (Nektar Therapeutics, priority 2005, published 2009).

The conditions of series [1]: cited from earlier work.
The nature of series [2]: amphotericin B lung-residence half-life (bronchioalveolar lavage / lung tissue homogenization). In kind it is in vivo. The following applies: pulmonary administration.
A further series has as its system fungus. The series is described as follows: minimum inhibitory concentration (MIC) of amphotericin B. It is filed as cell-based. The following applies: midrange of the MIC range, 300′ of FIG. 25. On the procedure:
In one version, an aerosolizeable pharmaceutical composition comprising amphotericin B is administered to the lungs and/or nasal cavity of a patient in a manner that results in an amphotericin B concentration greater than a minimum inhibitory concentration (MIC) of the fungus. The MIC is defined as the lowest concentration of amphotericin B that inhibits fungal growth. The MIC may be expressed as a particular concentration value or as a range of concentrations. A method according to one or more embodiments of the present invention administers a sufficient amount of the pharmaceutical composition to achieve a target lung concentration of amphotericin B that falls within the range of MIC values or is above a particular MIC value. In another version, the target lung concentration of amphotericin B exceeds the MIC range. In another version, the target lung concentration of amphotericin B exceeds the lowest value in an MIC range. […] As used herein, unless otherwise specified, the MIC value shall be taken to be the particular value when a particular MIC value is determined and shall be taken to be a midrange value when a range of MIC values is determined. […]
The MIC value for amphotericin B in this version has been determined to range from about 0.5 μg/g to about 4 μg/g, as shown by block 300. […]

Take `CCCCCCCCCCCCCCCC(=O)OC[C@H](COP(=O)([O-])OCC[N+](C)(C)C)OC(=O)CCCCCCCCCCCCCCC` [DPPC, dipalmitoylphosphatidylcholine]: in series [1], the solubility in water result is recorded as “about 10^−10 mol/L”.

As for `C[C@@H]1[C@H](O)[C@@H](C)/C=C/C=C/C=C/C=C/C=C/C=C/C=C/[C@H](O[C@@H]2O[C@H](C)[C@@H](O)[C@H](N)[C@@H]2O)C[C@@H]2O[C@](O)(C[C@@H](O)C[C@@H](O)[C@H](O)CC[C@@H](O)C[C@@H](O)CC(=O)O[C@H]1C)C[C@H](O)[C@H]2C(=O)O` [amphotericin B], in series [2] (lung epithelial fluid, measured by bronchioalveolar lavage), the “amphotericin B lung-residence half-life in lung epithelial fluid” value was “at least 10 hours”. For the same compound, the “amphotericin B lung-residence half-life in lung tissue” value in series [2] (lung tissue, measured by lung tissue homogenization) was “at least 1 week”. The “midrange MIC value” in the series with fungus is on record as “about 2.25 μg/g”.
